Values quoted from earlier work as cited in patent publication US20190125685A1, “COMPOSITE CAPSULE PREPARATION CONTAINING TADALAFIL AND TAMSULOSIN AND HAVING IMPROVED STABILITY AND ELUTION RATE” (HANMI PHARM. CO., LTD., priority 2016, published 2019).

Details: in vivo

Half-life relative to that of sildenafil or vardenafil: ≥ 3 times
Compound: CN1CC(=O)N2[C@H](c3ccc4c(c3)OCO4)c3[nH]c4ccccc4c3C[C@@H]2C1=O [Tadalafil]
